In patent US5290790A, “4-(4-imidazolyl) piperidines substituted at position 1, their preparation and also their therapeutic applications” (National De La Sante et De La Recherche Medicale, priority 1990, dated 1994):
Where a name gives a salt, the structure may show the parent alone.

Target: T1, H3 histaminergic receptors (Rattus norvegicus, UniProt Q9QYN8)
Assay: Reversal by H3 antagonists of exogenous histamine-induced inhibition of histamine release in sections of rat cerebral cortex (Arrang et al.)
Type: biochemical
Settings: not given
Source text: This method employs sections of rat cerebral cortex, and made possible the pharmacological characterisation of the H3 receptors (Nature, 1987, 327; 117-123).
This effect is progressively reversed in the presence of H3 antagonists such as the compounds of the invention, added at increasing concentrations. […]

T1 sequence (Q9QYN8 whole entry): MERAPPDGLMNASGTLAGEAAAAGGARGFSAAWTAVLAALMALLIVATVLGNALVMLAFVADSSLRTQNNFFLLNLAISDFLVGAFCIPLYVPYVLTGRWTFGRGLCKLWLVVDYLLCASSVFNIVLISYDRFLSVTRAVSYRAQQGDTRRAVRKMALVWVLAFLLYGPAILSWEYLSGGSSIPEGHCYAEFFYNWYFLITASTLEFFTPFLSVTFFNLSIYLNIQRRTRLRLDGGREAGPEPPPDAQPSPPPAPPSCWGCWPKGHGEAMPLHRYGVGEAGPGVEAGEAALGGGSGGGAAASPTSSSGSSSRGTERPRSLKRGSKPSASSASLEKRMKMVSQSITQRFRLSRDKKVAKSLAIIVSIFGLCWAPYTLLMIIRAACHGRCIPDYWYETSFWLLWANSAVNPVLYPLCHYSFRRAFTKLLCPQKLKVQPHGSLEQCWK

Row | SMILES | Ki [nM]
1 | O=C(CCCCCCc1ccccc1)N1CCC(c2c[nH]cn2)CC1 [Compound 48] | 65
2 | O=C(C1CC1c1ccccc1)N1CCC(c2c[nH]cn2)CC1 (centres unmarked) [Compound 13] | 20
3 | OC(=CCCc1ccccc1)N1CCC(c2c[nH]cn2)CC1 [Compound 59, 1-(1-Hydroxy-4-phenyl-1-buten-1-yl)-4-(4-imidazolyl)piperidine (Dihydrochloride)] | 47
4 | O=C(NCCCc1ccccc1)N1CCC(c2c[nH]cn2)CC1 [Compound 83] | 77
5 | O=C(CCCc1cccs1)N1CCC(c2c[nH]cn2)CC1 [Compound 43] | 35
6 | OC(=CCCCCCCCCCOc1ccccc1)N1CCC(c2c[nH]cn2)CC1 [Compound 60, 1-(1-Hydroxy-11-phenoxy-1-undecen-1-yl)-4-(4-imidazolyl)piperidine (dihydrochloride)] | 120
7 | CCCCCCC(=O)N1CCC(c2cnc[nH]2)CC1 [Compound 1] | 48
8 | O=C(CC1CCC1)N1CCC(c2c[nH]cn2)CC1 [Compound 20] | 59
9 | O=C(NCCC1CCCCC1)N1CCC(c2c[nH]cn2)CC1 [Compound 77] | 68
10 | O=C(CCc1ccccc1)N1CCC(c2c[nH]cn2)CC1 [Compound 38, 1-(3-Phenylpropionyl)-4-(1H-imidazol-4-yl)piperidine (Oxalate)] | 84
11 | O=C(CC1CC2CCC1C2)N1CCC(c2c[nH]cn2)CC1 (centres unmarked) [Compound 23, 1-(Norbornylmethylcarbonyl)-4-(1H-imidazol-4-yl)piperidine] | 23

Same assay, conditions: read-out: Apparent dissociation constant (Ki) as histamine antagonists at receptors of rat brain; sections of rat cerebral cortex; exogenous histamine 1 μM; apparent Ki calculated from IC50 according to Cheng and Prusoff with histamine EC=0.1 μM

Row | SMILES | Ki [nM]
12 | O=C(N1CCC(c2c[nH]cn2)CC1)C12CC3CC(CC(C3)C1)C2 [Compound 8] | 63
13 | O=C(CCCOc1ccccc1)N1CCC(c2cn(C(=O)Nc3ccc(Cl)cc3Cl)cn2)CC1 [Compound 92, 1-(4-Phenoxybutylryl)-4-[1-(2,4-Dichlorophenylaminocarbonyl)-4-imidazolyl]piperidine] | 34

Target: T1, H3 histaminergic receptors
Assay: not given
Settings: histamine at a concentration of 1 μM; cited from earlier work

Row | SMILES | Inhibition of release by exogenous histamine
14 | NCCc1c[nH]cn1 [histamine] | approximately 50%
